Experiment: HILIC, Waters Atlantis Premier BEH Z-HILIC, 100 × 2.1 mm, 1.7 µm, 40 °C, 0.16 mL/min, estimated dead time 1.4 min; A: water + 20 mM ammonium carbonate + 5 µM medronic acid; B: 10% water + 90% acetonitrile + 2 mM ammonium carbonate + 0.5 µM medronic acid; gradient (min/%B) 0/97 18/55 18.1/20 21.5/20 22/97 23.5/97 25.5/97
Conditions: stereoisomer not certain

LC retention time [min]	Structure (SMILES)
9.68	Nc1ncnc2c1ncn2C1OC(COP(=O)(O)O)C(O)C1O (configuration not stated) [AMP]
10.1	CC(=O)NC1C(OP(=O)(O)OP(=O)(O)OCC2OC(n3ccc(=O)[nH]c3=O)C(O)C2O)OC(CO)C(O)C1O (configuration not stated) [UDP-GlcNAc]
13.3	Nc1ncnc2c1ncn2C1OC(COP(=O)(O)OP(=O)(O)OP(=O)(O)O)C(O)C1O (configuration not stated) [ATP]
10.5	NC(=O)c1ccc[n+](C2OC(COP(=O)(O)OP(=O)(O)OCC3OC(n4cnc5c(N)ncnc54)C(O)C3O)C(O)C2O)c1 (configuration not stated) [NAD]
19.4	NCCCCC(N)C(=O)O (configuration not stated) [Lysine]
15.7	Nc1nc2c(ncn2C2OC(COP(=O)(O)OP(=O)(O)OP(=O)(O)O)C(O)C2O)c(=O)[nH]1 (configuration not stated) [GTP]
6.36	CC(C)CC(N)C(=O)O (configuration not stated) [Leucine]
12.5	O=P(O)(O)OCC1OC(O)C(O)C(O)C1O (configuration not stated) [Glucose-6-phosphate]
19.2	NC(N)=NCCCC(N)C(=O)O (configuration not stated) [Arginine]
8.9	NC(=O)C1=CN(C2OC(COP(=O)(O)OP(=O)(O)OCC3OC(n4cnc5c(N)ncnc54)C(O)C3O)C(O)C2O)C=CC1 (configuration not stated) [NADH]
15.5	O=P(O)(O)OCC1OC(O)(COP(=O)(O)O)C(O)C1O (configuration not stated) [Fructose-1,6-bisphosphate]
4.45	Nc1ncnc2c1ncn2C1OC(CO)C(O)C1O (configuration not stated) [Adenosine]
13.4	C=C(OP(=O)(O)O)C(=O)O [PEP]
12.6	O=C(O)C(CO)OP(=O)(O)O (configuration not stated) [Phosphoglyceric acid A]
11.5	O=C(CO)C(O)C(O)C(O)COP(=O)(O)O (configuration not stated) [Fructose 6-phosphate]
9.71	O=C(O)CCC(=O)O [Succinic Acid]
7.63	Cc1cc2nc3c(=O)[nH]c(=O)nc-3n(CC(O)C(O)C(O)COP(=O)(O)OP(=O)(O)OCC3OC(n4cnc5c(N)ncnc54)C(O)C3O)c2cc1C (configuration not stated) [FAD]
6.73	CCC(C)C(N)C(=O)O (configuration not stated) [Isoleucine]
9.7	O=C(O)CCC(O)C(=O)O (configuration not stated) [2-hydroxy glutaric acid]

LC retention time [min]	Structure (SMILES)
6.89	CCC(=O)OC(CC(=O)[O-])C[N+](C)(C)C (configuration not stated) [carnitine-C3]
10.6	O=P(O)(O)OCC(O)CO (configuration not stated) [Glycerol-3-phosphate]
10.6	NC(=O)CCC(N)C(=O)O (configuration not stated) [Glutamine]
7.87	OCC1OC(O)C(O)C(O)C1O (configuration not stated) [Hexose]
13.7	O=C(O)CC(O)(CC(=O)O)C(=O)O [Citric acid]
9.93	NC(CCC(=O)O)C(=O)O (configuration not stated) [Glutamic acid]
12	CC(C)(COP(=O)(O)OP(=O)(O)OCC1OC(n2cnc3c(N)ncnc32)C(O)C1OP(=O)(O)O)C(O)C(=O)NCCC(=O)NCCS (configuration not stated) [CoenzymeA]
10.4	CC(=O)SCCNC(=O)CCNC(=O)C(O)C(C)(C)COP(=O)(O)OP(=O)(O)OCC1OC(n2cnc3c(N)ncnc32)C(O)C1OP(=O)(O)O (configuration not stated) [Acetyl-CoA]
9.15	O=C(O)CCC(=O)C(=O)O [2-Oxoglutaric acid]
13.3	NC(=O)c1ccc[n+](C2OC(COP(=O)(O)OP(=O)(O)OCC3OC(n4cnc5c(N)ncnc54)C(OP(=O)(O)O)C3O)C(O)C2O)c1 (configuration not stated) [NADP]
13.8	NC(=O)C1=CN(C2OC(COP(=O)(O)OP(=O)(O)OCC3OC(n4cnc5c(N)ncnc54)C(OP(=O)(O)O)C3O)C(O)C2O)C=CC1 (configuration not stated) [NADPH]
3.29	CC(O)C(=O)O (configuration not stated) [Lactic Acid]
4.6	O=C1CC(C(=O)O)NC(=O)N1 (configuration not stated) [dihydroorotic acid]
10.1	C[N+](C)(C)CC(O)CC(=O)[O-] (configuration not stated) [Carnitine]
10.4	O=C(CO)COP(=O)(O)O [Triose phosphate]
4.62	O=C(O)CCCCC1SCC2NC(=O)NC21 (configuration not stated) [Biotin]
11.6	Nc1ncnc2c1ncn2C1OC(COP(=O)(O)OP(=O)(O)O)C(O)C1O (configuration not stated) [ADP]
13.6	O=C(O)CC(C(=O)O)C(O)C(=O)O (configuration not stated) [Isocitric acid]

Source: the RepoRT retention time repository
